Assay results from US5912351A, “Anhydrous 1,4-Dihydropyridines and salts thereof” (Recordati, S.A. Chemical and Pharmaceutical Company, priority 1995, dated 1999).
Where two headings read alike, the source gives them in different places.

Key:
Format in all cases: cell-based
enzyme ACAT [1] = target: T1, enzyme ACAT (Mus musculus, UniProt Q61263); experiment: Cholesterol esterification in cholesterol ester loaded macrophages; settings: macrophages preloaded with cholesteryl esters
T1 construct: Mouse peritoneal macrophages were obtained by peritoneal lavage from mice; endogenous in cells; host or cells: peritoneal macrophages of Balb/c mice, three days after intraperitoneal thioglycolate
T1 sequence (Q61263 1-540): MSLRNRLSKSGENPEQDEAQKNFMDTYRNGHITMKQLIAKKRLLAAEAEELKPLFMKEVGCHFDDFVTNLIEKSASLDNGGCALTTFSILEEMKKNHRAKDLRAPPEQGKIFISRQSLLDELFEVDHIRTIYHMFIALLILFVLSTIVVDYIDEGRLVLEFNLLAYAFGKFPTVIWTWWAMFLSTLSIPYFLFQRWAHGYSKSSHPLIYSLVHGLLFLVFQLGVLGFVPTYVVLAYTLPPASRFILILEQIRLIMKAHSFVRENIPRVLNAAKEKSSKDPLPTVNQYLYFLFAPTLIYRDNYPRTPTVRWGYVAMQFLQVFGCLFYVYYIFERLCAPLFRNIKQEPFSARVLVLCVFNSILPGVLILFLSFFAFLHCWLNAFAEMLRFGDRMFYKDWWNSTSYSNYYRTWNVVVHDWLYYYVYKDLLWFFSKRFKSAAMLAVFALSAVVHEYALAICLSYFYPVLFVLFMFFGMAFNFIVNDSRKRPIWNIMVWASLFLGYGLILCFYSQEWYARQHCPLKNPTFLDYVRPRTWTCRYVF
Procedure: Cholesterol esterification induced by AcLDL in mouse peritoneal macrophages was investigated as follows. Mouse peritoneal macrophages were obtained by peritoneal lavage from mice (Balb/c Charles River, Calco, Italy) three days after intraperitoneal injection of thioglycolate. Cells (2×3×10^6) were plated in 35 mm wells with Dulbecco's minimum essential medium containing 10% fetal bovine serum. After 3 hours, the dishes were washed to eliminate unattached cells and maintained in Dulbecco's minimum essential medium plus 10% fetal bovine serum for 24 hours before use. After cell plating, experiments were performed at 37° C. in serum free Dulbecco's minimum essential medium containing 0.2% essentially fatty acid-free bovine serum albumin, AcLDL, a specific ACAT inhibitor, S-58035 (See C. A. Ross et al., J. Biol, Chem. 259: 815-819 (1984)), and lercanidipine, or the lercanidipine enantiomers indicated. Human LDL (d=1.019-1.063 g/ml) were isolated from plasma of healthy volunteers by sequential ultracentrifugation (Beckman L5-50, Palo Alto, Calif.). For acetylation, LDL were dialyzed against 0. 15 M NaCl , pH 7.4, diluted with an equal volume of saturated sodium acetate and treated with acetic anhydride. For [^125 1]AcLDL, lipoproteins were labelled with sodium [^125 I]iodide desalted by gel filtration on Sephadex G-25 eluted with phosphate buffered saline. Specific activity was 100-200 cpm/ng of protein. Trichloroacetic acid non-precipitable radioactivity was below 2% of total. All lipoproteins were sterile filtered. The cells were incubated for 24 hours with the tested compounds. […] Cholesterol esterification was measured after addition of [1-^14 C] oleic acid (0.68 mCi sample) complexed with bovine serum albumin during the last 1 or 2 hours of incubation by subsequent determination of radioactivity associated with cellular cholesteryl esters. […]
Cells, prepared according to the procedure in Example 6A, are loaded with cholesteryl esters by exposure for 24 hours to a medium containing 50 μg/ml acetyl LDL. ACAT inhibition was then determined as in Example 6A.

enzyme ACAT [2] = target: T1, enzyme ACAT; experiment: Cholesterol esterification induced by AcLDL in mouse peritoneal macrophages; settings: FIG. 3
Procedure: Cholesterol esterification induced by AcLDL in mouse peritoneal macrophages was investigated as follows. Mouse peritoneal macrophages were obtained by peritoneal lavage from mice (Balb/c Charles River, Calco, Italy) three days after intraperitoneal injection of thioglycolate. Cells (2×3×10^6) were plated in 35 mm wells with Dulbecco's minimum essential medium containing 10% fetal bovine serum. After 3 hours, the dishes were washed to eliminate unattached cells and maintained in Dulbecco's minimum essential medium plus 10% fetal bovine serum for 24 hours before use. After cell plating, experiments were performed at 37° C. in serum free Dulbecco's minimum essential medium containing 0.2% essentially fatty acid-free bovine serum albumin, AcLDL, a specific ACAT inhibitor, S-58035 (See C. A. Ross et al., J. Biol, Chem. 259: 815-819 (1984)), and lercanidipine, or the lercanidipine enantiomers indicated. Human LDL (d=1.019-1.063 g/ml) were isolated from plasma of healthy volunteers by sequential ultracentrifugation (Beckman L5-50, Palo Alto, Calif.). […] Trichloroacetic acid non-precipitable radioactivity was below 2% of total. […] Cholesterol esterification was measured after addition of [1-^14 C] oleic acid (0.68 mCi sample) complexed with bovine serum albumin during the last 1 or 2 hours of incubation by subsequent determination of radioactivity associated with cellular cholesteryl esters.

[3] = test system: rat aortic smooth muscle cells (myocytes); experiment: Myocytes growth inhibition measured by cell count (rat myocytes); settings: 72 h, cell count after 72 hours, read-out: IC50 = concentration required to inhibit cell growth by 50%
Procedure: Migration of myocytes was investigated for the present invention using rat aortic smooth muscle cells in the presence of fibrinogen as chemotactic factor, whereas for studies on their proliferation rat and human cells were used. Cell count and [3H]-thymidine incorporation were used to evaluate myocytes growth. The methodology was as follows:
Myocytes were cultured from the intima-medial layer of the aortas of male Sprague-Dawley rats (200-250 g). Cells were grown in monolayers at 37° C. in a humidified atmosphere of 5% CO2 in Eagle's minimum essential medium supplemented with 10% (v/v) fetal calf serum, 100 U/ml penicillin, 0.1 mg/ml streptomycin, 20 mM tricine buffer and 1% (v/v) non-essential amino acid solution. The medium was changed every third day. Cells were used between the 4th and 10th passage. Cell viability was timely assessed by trypan blue exclusion. Myocytes were identified for growth behavior, morphology and using monoclonal antibody specific for a-actin, the actin isoform typical of myocytes. Human vascular myocytes (A 617 from human femoral artery) kindly provided by Prof. G. Gabbiani of The General Pathology Institute (Geneva University--Switzerland) were grown in the same culture conditions. (These or other human vascular myocytes can be obtained and cultured as described by Corsini et al., Atherosclerosis, 101: 117-125, (1993); Corsini et al., Pharm. Res, 23: 173 (1991); Ross, R, J. Cell Bio., 50: 172, (1971); and Skalli, 0. et al., J. Cell Bio., 103: 2787 (1986)).
Cells were seeded at various densities for rat (2×10^5) and human (5 10×10^4) myocytes/petri dish (35 mm), and incubated with Eagle's minimum essential medium supplemented with 10% fetal calf serum. Twenty-four hours later the medium was changed to one containing 0.4% fetal calf serum to stop cell growth, and the cultures were incubated for 72 hours. At this time (time 0) the medium was replaced by one containing 10% fetal calf serum in the presence or absence of known concentrations of the 1,4-dihydropyridine compounds being tested (shown in Table 1). The incubation was continued for an additional 72 hours at 37° C. Just before the addition of the test substances, an aliquot from each petri dish was used for cell counting. Cell proliferation was evaluated by cell count after trypsinization of the monolayers using a Coulter Counter model ZM. Cell viability was assessed by trypan blue exclusion, and found to be greater than 95% at the drug concentrations used.

[4] = myocytes from SD (Sprague Dawley) rat
[5] = myocytes from SHR (Spontaneously Hypertensive) rat
[6] = myocytes from WK (Wistar Kyoto) rat

Row | relative potency, cholesterol esterification (enzyme ACAT [1]) | IC50 (enzyme ACAT [1]; FIG. 4) | relative potency, cholesterol esterification (enzyme ACAT [2]) | Structure (SMILES) | IC50 [3, 4] | IC50 [3, 5] | IC50 [3, 6]
1 | slightly more potent than the racemate | ~7 µM | most potent compound | COC(=O)C1=C(C)NC(C)=C(C(=O)OC(C)(C)CN(C)CCC(c2ccccc2)c2ccccc2)[C@@H]1c1cccc([N+](=O)[O-])c1 [(R)-LE, (R)-(-)METHYL 1,1-N-TRIMETHYL-N-(3,3-DIPHENYLPROPYL)-2-AMINOETHYL 1,4-DIHYDRO-2,6-DIMETHYL-4-(3-NITROPHENYL)PYRIDINE-3,5-DICARBOXYLATE] | 30.7 µM | 9.2 µM | 15.3 µM
2 | least potent |  |  | COC(=O)C1=C(C)NC(C)=C(C(=O)OC(C)(C)CN(C)CCC(c2ccccc2)c2ccccc2)[C@H]1c1cccc([N+](=O)[O-])c1 [(S)-LE, (S)-(+)-METHYL 1,1-N-TRIMETHYL-N-(3,3-DIPHENYLPROPYL)-2-AMINOETHYL 1,4-DIHYDRO-2,6-DIMETHYL-4-(3-NITROPHENYL)PYRIDINE-3,5-DICARBOXYLATE] | 33.3 µM | 16.8 µM | 20.7 µM
